Data as given in patent publication EP3697386B1, “LIQUID COMPOSITIONS FOR PERORAL USE COMPRISING PHOSPHATIDYLGLYCEROL DERIVATIVES AND T[…] TREATING CARDIAC CHANN[…] BY PHARMACOLOGICAL AGENTS” (Signpath Pharma, Inc., priority 2017, dated 2019).

Target: hERG (Homo sapiens, UniProt Q12809)
Test: Whole-cell patch-clamp of IKr hERG tail current: protective effect of lipids against hERG inhibition by Nilotinib
Conditions: for activity at 5 min: human, herg hek293 cells

Sequence of hERG (Q12809 whole entry): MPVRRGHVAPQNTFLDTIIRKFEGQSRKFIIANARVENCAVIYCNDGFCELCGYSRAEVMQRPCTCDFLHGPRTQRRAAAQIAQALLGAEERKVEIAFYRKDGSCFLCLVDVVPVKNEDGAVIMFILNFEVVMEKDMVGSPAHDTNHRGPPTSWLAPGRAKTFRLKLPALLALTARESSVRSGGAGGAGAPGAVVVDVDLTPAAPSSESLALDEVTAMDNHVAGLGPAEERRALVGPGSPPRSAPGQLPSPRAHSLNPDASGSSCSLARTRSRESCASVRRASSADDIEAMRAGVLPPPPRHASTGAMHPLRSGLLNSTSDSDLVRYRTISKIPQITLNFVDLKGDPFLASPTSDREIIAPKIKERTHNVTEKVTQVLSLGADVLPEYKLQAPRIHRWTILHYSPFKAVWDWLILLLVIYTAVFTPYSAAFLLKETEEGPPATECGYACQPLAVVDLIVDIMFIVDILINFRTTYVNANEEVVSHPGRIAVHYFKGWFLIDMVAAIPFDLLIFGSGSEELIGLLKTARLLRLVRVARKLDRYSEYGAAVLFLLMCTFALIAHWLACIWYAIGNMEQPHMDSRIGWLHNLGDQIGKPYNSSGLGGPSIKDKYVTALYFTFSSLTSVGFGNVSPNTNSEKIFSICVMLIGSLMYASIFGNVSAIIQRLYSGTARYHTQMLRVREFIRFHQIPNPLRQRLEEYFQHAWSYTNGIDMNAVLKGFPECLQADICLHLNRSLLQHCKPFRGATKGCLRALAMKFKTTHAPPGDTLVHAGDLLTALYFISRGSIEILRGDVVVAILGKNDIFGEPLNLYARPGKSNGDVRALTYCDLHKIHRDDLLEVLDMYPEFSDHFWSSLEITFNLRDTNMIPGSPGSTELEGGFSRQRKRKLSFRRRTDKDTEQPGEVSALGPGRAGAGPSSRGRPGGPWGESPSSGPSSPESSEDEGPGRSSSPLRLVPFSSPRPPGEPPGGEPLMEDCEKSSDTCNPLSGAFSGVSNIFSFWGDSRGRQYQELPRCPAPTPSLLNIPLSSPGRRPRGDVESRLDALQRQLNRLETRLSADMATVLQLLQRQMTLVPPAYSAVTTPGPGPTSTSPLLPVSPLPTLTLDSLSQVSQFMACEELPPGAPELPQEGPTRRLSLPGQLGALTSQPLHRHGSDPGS

Compound | activity at 5 min [%] | activity at 5 min (Normalized Current Density, lipid alone in aqueous solution, 5 minutes exposure, hERG-transfected HEK 293 cells, tail current at -55 mV, baseline = 1.000) [%] | Normalized Current Density (lipid alone in aqueous solution, 5 minutes exposure, hERG-transfected HEK 293 cells, tail current at -55 mV, baseline = 1.000)
CCCCCCCCCCCCCC(=O)OC[C@H](COP(=O)([O-])OCC[N+](C)(C)C)OC(=O)CCCCCCCCCCCCC [DMPC, 1,2-dimyristoyl-sn-glycero-3-phosphocholine] | 106 | 86.3 | 
12-Mysteroyl-2-Hydroxy-sn-Glycero-3-[Phospho-rac-(glycerol)] [DMPG] |  |  | 0.800
